The text below walks through data of patent US20210315893A1 (Galapagos NV, priority 2017, published 2021).

For one experiment, the target named is T1, S1PR2 (Homo sapiens, UniProt O95136).
T1 construct: expressed in transfected cells
Put plainly: S1PR2 binding assay (competition with radioactively labeled S1P, SpA). Conditions: membranes from stable cell line over expressing S1PR2, SpA beads; read-out: S1P2 EC50 (nM), S1PR2 binding EC50. As for the experimental part: The following assay can be used for determination of S1PR2 binding. The binding assay measures the potential to compete with radioactively labeled S1P for binding to the receptor.
The assay is performed in a96 well plate where the following reagents are added. First 50 μL compound is added into the assay plate, followed by addition of 100 μL ofa mixture consisting of membrane and Scintillation proximity Assay (SpA) beads [mixture consists […] membranes derived from stable cell line over expressing SPR2, 0.5 mg/well Polyvinyltoluene-Wheat Germ-Agglutinin (PVT-WGA) beads (Perkin Elmer, RPNQOO1)]. All components are diluted in assay buffer containing 20 mM Tris pH 7.5; 10 mM MgCl2; 100 mM NaCl; 0.4% BSA FAF; 1 mM Na3VO4) and incubated for 15 min until addition to the assay plate. Subsequently, 50 ul of radioactively labeled S1P is added to the wells (Sphingosine, D-erythro-[3-3H] 1-phosphate; ARC; ART0778). After an incubation for 2 h at room temperature, plates are centrifuged at 2000 rpm during 20 min. Plates are read on a Topcount reader (Perkin Elmer) immediately after centrifugation (readout time, 1 min/well).

The target of experiment [1] is T2, human GPCR sphingosine 1-phosphate receptor 2 (Homo sapiens, UniProt O95136).
T2 construct: host or cells: CHO
T2 sequence (O95136 whole entry): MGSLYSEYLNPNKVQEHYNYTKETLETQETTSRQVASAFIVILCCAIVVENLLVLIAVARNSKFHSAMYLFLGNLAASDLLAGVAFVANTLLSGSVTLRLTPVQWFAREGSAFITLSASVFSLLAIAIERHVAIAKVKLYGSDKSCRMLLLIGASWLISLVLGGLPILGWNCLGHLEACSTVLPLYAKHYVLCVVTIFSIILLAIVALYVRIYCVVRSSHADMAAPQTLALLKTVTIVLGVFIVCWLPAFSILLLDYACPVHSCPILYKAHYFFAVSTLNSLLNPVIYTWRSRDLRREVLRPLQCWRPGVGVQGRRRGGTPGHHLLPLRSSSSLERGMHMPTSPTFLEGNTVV
Put plainly: S1PR2 antagonist Ca2+ flux assay. It counts as cell-based. Conditions: antagonist mode, CHO-S1PR2 cells, S1P at EC80, Ca2+ fluorescence; read-out: S1P2 EC50 (nM), S1P2 antagonist EC50. The protocol:
Triggering of S1PR2 by administration of Sphingosine-1-phosphate leads to a transient increase in intracellular Ca^2+. The Ca^2+ flux assays are measuring the release of Ca^2+ intracellularly by use of a Ca^2+ sensitive fluorescent dye. The assay is firstly run in agonist mode (incubation of compounds alone) to ensure that the Ca^2+ released measured is not caused by the test compound having an agonistic effect. Then the assay is continued in antagonist mode (Sphingosine-1-Phosphate added to incubated medium containing the test compounds).
CHO cells stably overexpressing human GPCR sphingosine 1-phosphate receptor 2 (CHO-S1PR2 Perkin Elmer; ES-594-A) are seeded from a frozen stock in 384 wells sterile microplates (50 μL; 7,500 cells/well) and are incubated overnight at 37° C. and 5% CO2. The next day cells are washed twice with starvation medium (F-12 Ham's medium containing 0.1% BSA (Fatty acid free: FAF)) and left in 25 μL starvation medium for 1 h at 37° C., 5% CO2. After this starvation cells are incubated with 25 μL buffer containing the Ca^2+-sensitive fluorescent dye (0.5 mg Fluo8+125 mg Allura Red in 100 mL of 1% DMSO, in HBSS+20 mM Hepes+5 mM probenecid). The cells are incubated for an additional 1 h after which 10 μL compounds, diluted in HBSS buffer with 20 mM Hepes and 0.1% BSA (FAF), are added to the cells and intracellular Ca2+ changes are immediately measured by reading fluorescence during 3 min (FDSS/pCELL reader). The ratio of the maximal fluorescence over the background fluorescence before compound injection is used to determine compound response.
After readout of the agonist activity, the plates are incubated for 15 min at 37° C. and 5% CO2. Then, cells are stimulated with 10 μL Sphingosine-1-Phosphate (S1P) (Avanti Polar lipids-860492P) at its EC80 concentration. Intracellular Ca2+ changes are immediately measured by reading fluorescence during 3 min (FDSS/pCELL reader). The ratio of the maximal fluorescence over the background fluorescence before compound injection is used to determine compound response.
The obtained ratio's for agonist and antagonist readout were normalized versus vehicle and EC 100 of S1P ascontrols for agonist mode and versus vehicle and […]. From these normalized data EC50 of the compounds are derived.
On the technique in general: Calcium assays in cells follow changes in intracellular calcium, usually with a dye or a luminescent sensor.

The test system of experiment [2] is HFL-1 cells. Put plainly: IL-8 production assay (S1P induced IL-8). Particulars: Homo sapiens, HFL1; S1P (1 μM) induced IL-8 in HFL-1 cells, starvation medium without HSA; read-out: IL8 EC50. Type of experiment: cell-based. The protocol:
This assay is designed to test inhibitory activity of compounds on S1P induced IL-8 on HFL-1 cells, ahuman fetal lung fibroblast cell line.
Human Fetal Lung cells (HFL-1) are seeded in 96 well plates in growth medium (F12K+10% heat inactivated FBS+l1% Pen/strep). After overnight incubation at 37° C., […] cells are refreshed with starvation medium without HSA (F12K+1% FBS+1% Pen/strep). On day three, compounds are added (10 point serial dilution, 30 μM highest concentration, 1/3 dilution, 0.3% DMSO final) and plates are incubated for one h at 37° C., 5% CO2. Subsequently S1P at 1 μM final concentration is added and plates are incubated for 16 to24 h at 37° C., […] after which the supermatant was collected. IL-8 levels in the supernatant are determined with the IL-8 ELISA of R&D systems.

For experiment [3], the system named is HFL-1 cells. Put plainly: IL8 assay in the presence of Human Serum Albumin. Particulars: HFL1, read-out: HSA IL8 EC50.

T1 sequence (O95136 whole entry): as above

As a reminder, the EC50 is the concentration giving half of the maximal effect. Consider `O=c1c2ccccc2c(Cc2nc3cc(Cl)c(OC(F)(F)F)cc3[nH]2)nn1CC1CC1` [Compound 27, 4-[[6-chloro-5-(trifluoromethoxy)-1H-benzimidazol-2-yl]methyl]-2-(cyclopropylmethyl)phthalazin-1-one], for which the EC50 amounted to 3900 nM at S1PR2, 868 nM in experiment [1], 1110 nM with HFL-1 cells [2] and 10000 nM with HFL-1 cells [3].

Consider `COc1ccc2c(=O)n(CC(=O)N3CCOCC3)nc(Cc3nc4cc(Cl)c(OCC(F)F)cc4[nH]3)c2c1` [Compound 30, 4-[[5-chloro-6-(2,2-difluoroethoxy)-1H-benzimidazol-2-yl]methyl]-6-methoxy-2-(2-morpholino-2-oxo-ethyl)phthalazin-1-one], for which the 50% effective concentration (EC50) at S1PR2 is 93.3 nM; in experiment [1], 9.47 nM; with HFL-1 cells [2] it was 13.7 nM; with HFL-1 cells [3] it was 74.5 nM.

For `COc1ccc2c(Cc3nc4cc(Cl)c(OCC(F)F)cc4[nH]3)nn(CC(=O)N3CCOCC3)c(=O)c2c1` [Compound 31, 4-[[5-chloro-6-(2,2-difluoroethoxy)-1H-benzimidazol-2-yl]methyl]-7-methoxy-2-(2-morpholino-2-oxo-ethyl)phthalazin-1-one], the concentration for a half-maximal effect (EC50) worked out at 93.2 nM at S1PR2, 9.11 nM in experiment [1], 11 nM in the experiment on HFL-1 cells [2] and 72.6 nM with HFL-1 cells [3].

In the case of `O=C(Cn1nc(Cc2nc3cc(Cl)c(OCC(F)F)cc3[nH]2)c2ccc(N3CCOCC3)cc2c1=O)N1CCOCC1` [Compound 33, 4-[[5-chloro-6-(2,2-difluoroethoxy)-1H-benzimidazol-2-yl]methyl]-7-morpholino-2-(2-morpholino-2-oxo-ethyl)phthalazin-1-one], the EC50 on S1PR2 worked out at 378 nM; in experiment [1], 86.5 nM; with HFL-1 cells [2], 15.6 nM; in the experiment with HFL-1 cells [3], 129 nM.

On to `N#Cc1ccc2c(Cc3nc4cc(Cl)c(OCC(F)F)cc4[nH]3)nn(CC(=O)N3CCOCC3)c(=O)c2c1` [Compound 40, 1-[[5-chloro-6-(2,2-difluoroethoxy)-1H-benzimidazol-2-yl]methyl]-3-(2-morpholino-2-oxo-ethyl)-4-oxo-phthalazine-6-carbonitrile], for which the EC50 at S1PR2 worked out at 261 nM; in experiment [1], 86.4 nM; in the experiment with HFL-1 cells [2], 145 nM; in the experiment with HFL-1 cells [3] it was 292 nM.

With `CS(=O)(=O)c1ccc2c(=O)n(CC(=O)N3CCOCC3)nc(Cc3nc4cc(Cl)c(OCC(F)F)cc4[nH]3)c2c1` [Compound 41, 4-[[5-chloro-6-(2,2-difluoroethoxy)-1H-benzimidazol-2-yl]methyl]-6-methylsulfonyl-2-(2-morpholino-2-oxo-ethyl)phthalazin-1-one], the concentration for a half-maximal effect (EC50) at S1PR2 was 1310 nM; in experiment [1] it was 1050 nM; in the experiment with HFL-1 cells [2] it was 685 nM; in the experiment on HFL-1 cells [3] it was 2780 nM.

`O=C(O)C1(Cn2nc(Cc3nc4cc(Cl)c(OC(F)(F)F)cc4[nH]3)c3ccccc3c2=O)CC1` [Compound 47, 1-[[4-[[5-chloro-6-(trifluoromethoxy)-1H-benzimidazol-2-yl]methyl]-1-oxo-phthalazin-2-yl]methyl]cyclopropanecarboxylic acid]: the EC50 worked out at 4520 nM on S1PR2, 2240 nM in experiment [1], 1360 nM with HFL-1 cells [2] and 10000 nM with HFL-1 cells [3].

As for `N#Cc1cc2[nH]c(Cc3nn(CC(=O)N4CCOCC4)c(=O)c4cccc(C5CC5)c34)nc2cc1OCC(F)F` [Compound 54, 2-[[8-cyclopropyl-3-(2-morpholino-2-oxo-ethyl)-4-oxo-phthalazin-1-yl]methyl]-6-(2,2-difluoroethoxy)-3H-benzimidazole-5-carbonitrile], the EC50 on S1PR2 amounted to 93.5 nM; in experiment [1], 23.8 nM; with HFL-1 cells [2] it was 32.2 nM; in the experiment with HFL-1 cells [3], 41.1 nM.

For the compound `O=c1c2ccccc2c(Cc2nc3cc(Cl)c(OC(F)(F)F)cc3[nH]2)nn1CC1CNC1` [Compound 61, 2-(azetidin-3-ylmethyl)-4-[[6-chloro-5-(trifluoromethoxy)-1H-benzimidazol-2-yl]methyl]phthalazin-1-one], the concentration for a half-maximal effect (EC50) on S1PR2 was 581 nM; in experiment [1] it was 677 nM; with HFL-1 cells [2], 591 nM; in the experiment on HFL-1 cells [3], 1120 nM.

On to `CC(C)(C)COc1cc2[nH]c(Cc3nn(CC(=O)N4CCOCC4)c(=O)c4ccccc34)nc2cc1Cl` [Compound 160, 4-[[5-chloro-6-(2,2-dimethylpropoxy)-1H-benzimidazol-2-yl]methyl]-2-(2-morpholino-2-oxo-ethyl)phthalazin-1-one], for which the EC50 was 47.9 nM in experiment [1], 133 nM with HFL-1 cells [2] and 1050 nM in the experiment on HFL-1 cells [3].

Take `CCOc1cc2[nH]c(Cc3nn(CC(=O)N4CCOCC4)c(=O)c4ccccc34)nc2cc1Cl` [Compound 165, 4-[(5-chloro-6-ethoxy-1H-benzimidazol-2-yl)methyl]-2-(2-morpholino-2-oxo-ethyl)phthalazin-1-one]: the half-maximal effective concentration (EC50) in the experiment on HFL-1 cells [2] came to 4.65 nM; with HFL-1 cells [3], 79.9 nM.

With `CC(C)COc1cc2[nH]c(Cc3nn(CC(=O)N4CCOCC4)c(=O)c4ccccc34)nc2cc1Cl` [Compound 173, 4-[(5-chloro-6-isobutoxy-1H-benzimidazol-2-yl)methyl]-2-(2-morpholino-2-oxo-ethyl)phthalazin-1-one], the half-maximal effective concentration (EC50) came to 16 nM in experiment [1], 2.4 nM with HFL-1 cells [2] and 3.47 nM in the experiment with HFL-1 cells [3].

As to `N#Cc1cc2[nH]c(Cc3nn(CC(=O)N4CC(O)(C5CC5)C4)c(=O)c4ccccc34)nc2cc1OCC(F)F` [Compound 215, 2-[[3-[2-(3-cyclopropyl-3-hydroxy-azetidin-1-yl)-2-oxo-ethyl]-4-oxo-phthalazin-1-yl)methyl]-6-(2,2-difluoroethoxy)-3H-benzimidazole-5-carbonitrile], the EC50 is 120 nM in experiment [1], 200 nM with HFL-1 cells [2] and 112 nM in the experiment with HFL-1 cells [3].

As for `CCOc1cc2nc(Cc3nn(CC(=O)NS(C)(=O)=O)c(=O)c4ccccc34)[nH]c2cc1F` [Compound 247, 2-[4-[(5-ethoxy-6-fluoro-1H-benzimidazol-2-yl)methyl]-1-oxo-phthalazin-2-yl]-N-methylsulfonyl-acetamide], the EC50 on S1PR2 was 2470 nM; in experiment [1] it was 87.9 nM.

`N#Cc1cc2nc(Cc3nn(CC(=O)N4CCOCC4)c(=O)c4ccccc34)cn2cc1OCC(F)F` [Compound 256, 6-(2,2-difluoroethoxy)-2-[[3-(2-morpholino-2-oxo-ethyl)-4-oxo-phthalazin-1-yl]methyl]imidazo[1,2-a]pyridine-7-carbonitrile]: the concentration giving a half-maximal response (EC50) came to 11600 nM in experiment [1], 2660 nM in the experiment on HFL-1 cells [2] and 2350 nM with HFL-1 cells [3].

As to `CCOc1cc2[nH]c(Cc3nn(CC(=O)O)c(=O)c4ccccc34)nc2cc1Cl` [compound 6, 2-[4-[(5-chloro-6-ethoxy-1H-benzimidazol-2-yl)methyl]-1-oxo-phthalazin-2-yl]acetic acid], the EC50 turned out to be 12.4 nM in the experiment with HFL-1 cells [2] and 57.2 nM with HFL-1 cells [3].
